Patent US11332472B2, “Substituted piperidines as inhibitors of ubiquitin specific protease 7” (LES LABORATOIRES SERVIER, priority 2017, dated 2022)

Target: T1, USP7 (Homo sapiens, UniProt Q93009, C315A)
T1 construct: 0.25 nM His-His-USP7 (aa208-560, [C315A]) was incubated with compound; His-His (N)
Assay: Inhibition of USP7 by Fluorescence Intensity (FLINT) readings, Ubiquitin-Rhodamine-110 substrate
Format: biochemical
Settings: 0.25 nM His-His-USP7 (aa208-560, [C315A]); compound 60 minutes at 30° C.; 500 nM Ubiquitin-Rhodamine substrate; 11-point curves
Description: USP7 activity was measured using Rhodamine-110 c-terminal labelled Ubiquitin as a substrate (Viva Biosciences). Incubation with USP7 results in the release of Rhodamine-110 leading to an increase in fluorescence which can be used in the continuous measurement of USP7 activity.
The USP7 reactions were performed in a 50 μL volume, in 384 well black solid low binding plates (Corning #3575). The reaction buffer consisted of 100 mM Bicine pH 8.0, 0.01% TritonX 100, 1 mM TCEP, and 10% DMSO.
0.25 nM His-His-USP7 (aa208-560, [C315A]) was incubated with compound (final concentration 10% DMSO) for 60 minutes at 30° C. The reaction was then initiated by the addition of 500 nM Ubiquitin-Rhodamine-10 substrate and the plate read every 3 minutes for 21 minutes to measure the release of Rhodamine-110. Fluorescence Intensity (FLINT) readings were measured using a Biomek Neo plate reader (Ex. 485 nm. Em. 535 nm).
The inhibition of increasing doses of compound was expressed as a percentage reduction in kinetic rate compared to the kinetic rates established between ‘DMSO only’ and ‘total inhibition’ controls (no USP7). The inhibitory concentrations that gave a 50% reduction in kinetic rate (IC50) were determined, from 11-point dose response curves, in XL-Fit using a 4-Parameter Logistic Model (Sigmoidal Dose-Response Model).

T1 sequence (Q93009 208-560 C315A): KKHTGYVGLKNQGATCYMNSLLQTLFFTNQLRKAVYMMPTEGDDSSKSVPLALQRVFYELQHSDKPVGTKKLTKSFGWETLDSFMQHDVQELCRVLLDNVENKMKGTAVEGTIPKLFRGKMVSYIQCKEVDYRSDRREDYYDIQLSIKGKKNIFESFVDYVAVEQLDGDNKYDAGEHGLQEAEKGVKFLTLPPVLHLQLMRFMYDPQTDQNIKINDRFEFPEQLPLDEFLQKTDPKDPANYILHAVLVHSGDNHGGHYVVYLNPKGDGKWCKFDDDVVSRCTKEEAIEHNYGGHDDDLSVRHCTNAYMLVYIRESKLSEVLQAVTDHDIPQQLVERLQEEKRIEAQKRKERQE

| SMILES | IC50 |
| --- | --- |
| COc1ccc(C(=O)Nc2ccc3ncn(CC4(O)CCN(C(=O)[C@@H]5CCCC[C@H]5c5ccccc5)CC4)c(=O)c3n2)cc1 (relative stereo) [Example 107, N-[3-[[4-hydroxy-1-(trans-2-phenylcyclohexanecarbonyl)-4-piperidyl]methyl]-4-oxo-pyrido[3,2-d]pyrimidin-6-yl]-4-methoxy-benzamide] | 102 nM |
| NC(=O)CSCCC(=O)Nc1ccc2ncn(CC3(O)CCN(C(=O)[C@@H]4CCCC[C@H]4c4ccccc4)CC3)c(=O)c2n1 (relative stereo) [Example 108, 3-(2-amino-2-oxo-ethyl)sulfanyl-N-[3-[[4-hydroxy-1-(trans-2-phenylcyclohexanecarbonyl)-4-piperidyl]methyl]-4-oxo-pyrido[3,2-d]pyrimidin-6-yl]propanamide] | 76.5 nM |
| O=C([C@@H]1CCCC[C@H]1c1ccccc1)N1CCC(O)(Cn2cnc3c(ccn3Cc3cccnc3)c2=O)CC1 (relative stereo) [Example 109, 3-[[4-hydroxy-1-(trans-2-phenylcyclohexanecarbonyl)-4-piperidyl]methyl]-7-(3-pyridylmethyl)pyrrolo[2,3-d]pyrimidin-4-one] | 1010 nM |
| O=C([C@@H]1CCCC[C@H]1c1ccccc1)N1CCC(O)(Cn2cnc3c(ccn3Cc3ccsc3)c2=O)CC1 (relative stereo) [Example 110, 3-[[4-hydroxy-1-(trans-2-phenylcyclohexanecarbonyl)-4-piperidyl]methyl]-7-(3-thienylmethyl)pyrrolo[2,3-d]pyrimidin-4-one] | 450 nM |
| O=C([C@@H]1OCCO[C@@H]1c1ccccc1)N1CCC(O)(Cn2cnc3c(ccn3-c3ccccc3)c2=O)CC1 (single isomer, unassigned) [Example 5, 3-[[4-hydroxy-1-[cis-3-phenyl-1,4-dioxane-2-carbonyl]-4-piperidyl]methyl]-7-phenyl-pyrrolo[2,3-d]pyrimidin-4-one] | 19400 nM |
| O=C([C@@H]1OCCO[C@@H]1c1ccccc1)N1CCC(O)(Cn2cnc3c(ccn3-c3ccccc3)c2=O)CC1 (single isomer, unassigned) [Example 6, 3-[[4-hydroxy-1-[cis-3-phenyl-1,4-dioxane-2-carbonyl]-4-piperidyl]methyl]-7-phenyl-pyrrolo[2,3-d]pyrimidin-4-one] | 28000 nM |
| COc1ccc(-n2ccc3c(=O)n(CC4(O)CCN(C(=O)[C@@H]5OCCO[C@@H]5c5ccccc5)CC4)cnc32)cc1 (single isomer, unassigned) [Example 7, 3-[[4-hydroxy-1-[cis-3-phenyl-1,4-dioxane-2-carbonyl]-4-piperidyl]methyl]-7-(4 methoxyphenyl)pyrrolo[2,3-d]pyrimidin-4-one] | 6500 nM |
| COc1ccc(-n2ccc3c(=O)n(CC4(O)CCN(C(=O)[C@@H]5OCCO[C@@H]5c5ccccc5)CC4)cnc32)cc1 (single isomer, unassigned) [Example 8, 3-[[4-hydroxy-1-[cis-3-phenyl-1,4-dioxane-2-carbonyl]-4-piperidyl]methyl]-7-(4-methoxyphenyl)pyrrolo[2,3-d]pyrimidin-4-one] | 13300 nM |
| O=C([C@@H]1CCCC[C@H]1n1cccc1)N1CCC(O)(Cn2cnc3c(ccn3-c3ccccc3)c2=O)CC1 (single isomer, unassigned) [Example 13, 3-[[4-hydroxy-1-[trans-2-pyrrol-1-ylcyclohexanecarbonyl]-4-piperidyl]methyl]-7-phenyl-pyrrolo[2,3-d]pyrimidin-4-one] | 11100 nM |
| COc1ccc(-n2ccc3c(=O)n(CC4(O)CCN(C(=O)[C@@H]5CCCC[C@H]5n5cccc5)CC4)cnc32)cc1 (single isomer, unassigned) [Example 16, 3-[[4-hydroxy-1-[trans-2-pyrrol-1-ylcyclohexanecarbonyl]-4-piperidyl]methyl]-7-(4-methoxyphenyl)pyrrolo[2,3-d]pyrimidin-4-one] | 2970 nM |
| O=C([C@@H]1CCCO[C@H]1c1ccccc1)N1CCC(O)(Cn2cnc3c(ccn3-c3ccccc3)c2=O)CC1 (single isomer, unassigned) [Example 26, 3-[[4-hydroxy-1-[trans-2-phenyltetrahydropyran-3-carbonyl]-4-piperidyl]methyl]-7-phenyl-pyrrolo[2,3-d]pyrimidin-4-one] | 67 nM |
| COc1ccc(-n2ccc3c(=O)n(CC4(O)CCN(C(=O)[C@@H]5CC(F)(F)CC[C@H]5c5ccccc5)CC4)cnc32)cc1 (single isomer, unassigned) [Example 29, 3-[[1-[trans-5,5-difluoro-2-phenyl-cyclohexanecarbonyl]-4-hydroxy-4-piperidyl]methyl]-7-(4-methoxyphenyl)pyrrolo[2,3-d]pyrimidin-4-one] | 612 nM |
| O=C([C@@H]1CC(F)(F)CC[C@H]1c1ccccc1)N1CCC(O)(Cn2cnc3c(ccn3-c3ccccc3)c2=O)CC1 (single isomer, unassigned) [Example 31, 3-[[1-[trans-5,5-difluoro-2-phenyl-cyclohexanecarbonyl]-4-hydroxy-4-piperidyl]methyl]-7-phenyl-pyrrolo[2,3-d]pyrimidin-4-one] | 2760 nM |
| COc1ccc(-n2ccc3c(=O)n(CC4(O)CCN(C(=O)[C@@H]5CCC(F)(F)C[C@H]5c5ccccc5)CC4)cnc32)cc1 (single isomer, unassigned) [Example 33, 3-[[1-(trans-4,4-difluoro-2-phenyl-cyclohexanecarbonyl)-4-hydroxy-4-piperidyl]methyl]-7-(4-methoxyphenyl)pyrrolo[2,3-d]pyrimidin-4-one] | 4670 nM |
| O=C([C@@H]1CCC(F)(F)C[C@H]1c1ccccc1)N1CCC(O)(Cn2cnc3c(ccn3-c3ccccc3)c2=O)CC1 (single isomer, unassigned) [Example 35, 3-[[1-[trans-4,4-difluoro-2-phenyl-cyclohexanecarbonyl]-4-hydroxy-4-piperidyl]methyl]-7-phenyl-pyrrolo[2,3-d]pyrimidin-4-one] | 13500 nM |
| CN1C(=O)CC[C@@H](C(=O)N2CCC(O)(Cn3cnc4c(ccn4C)c3=O)CC2)[C@@H]1c1ccccc1 (single isomer, unassigned) [Example 38, 3-[[4-hydroxy-1-[trans-1-methyl-6-oxo-2-phenyl-piperidine-3-carbonyl]-4-piperidyl]methyl]-7-methyl-pyrrolo[2,3-d]pyrimidin-4-one] | 399 nM |
| COc1ccc(-n2ccc3c(=O)n(CC4(O)CCN(C(=O)[C@@H]5CCCC[C@H]5c5ccc(F)cc5)CC4)cnc32)cc1 (single isomer, unassigned) [Example 40, 3-[[1-[trans-2-(4-fluorophenyl)cyclohexanecarbonyl]-4-hydroxy-4-piperidyl]methyl]-7-(4-methoxyphenyl)pyrrolo[2,3-d]pyrimidin-4-one] | 883 nM |
| O=C(C1CCCCC1c1ccc(F)cc1)N1CCC(O)(Cn2cnc3c(ccn3-c3ccccc3)c2=O)CC1 (single isomer, unassigned) [Example 42, 3-[[1-[(trans-2-(4-fluorophenyl)cyclohexanecarbonyl]-4-hydroxy-4-piperidyl]methyl]-7-phenyl-pyrrolo[2,3-d]pyrimidin-4-one] | 1590 nM |
| COc1ccc(-n2ccc3c(=O)n(CC4(O)CCN(C(=O)[C@@H]5CCCO[C@H]5c5ccccc5)CC4)cnc32)cc1 (single isomer, unassigned) [Example 44, 3-[[4-hydroxy-1-[trans-2-phenyltetrahydropyran-3-carbonyl]-4-piperidyl]methyl]-7-(4-methoxyphenyl)pyrrolo[2,3-d]pyrimidin-4-one] | 2750 nM |
| COc1ccc(-n2ccc3c(=O)n(CC4(O)CCN(C(=O)[C@@H]5CCCO[C@H]5c5ccccc5)CC4)cnc32)cc1 (single isomer, unassigned) [Example 45, 3-[[4-hydroxy-1-[trans-2-phenyltetrahydropyran-3-carbonyl]-4-piperidyl]methyl]-7-(4-methoxyphenyl)pyrrolo[2,3-d]pyrimidin-4-one] | 86 nM |
| COc1ccc(-n2ccc3c(=O)n(CC4(O)CCN(C(=O)[C@@H]5CCCC[C@H]5n5ccnc5)CC4)cnc32)cc1 (single isomer, unassigned) [Example 48, 3-[[4-hydroxy-1-[trans-2-imidazol-1-ylcyclohexanecarbonyl]-4-piperidyl]methyl]-7-(4-methoxyphenyl)pyrrolo[2,3-d]pyrimidin-4-one] | 413 nM |
| O=C([C@@H]1CCCC[C@H]1n1ccnc1)N1CCC(O)(Cn2cnc3c(ccn3-c3ccccc3)c2=O)CC1 (single isomer, unassigned) [Example 50, 3-[[4-hydroxy-1-[trans-2-imidazol-1-ylcyclohexanecarbonyl]-4-piperidyl]methyl]-7-phenyl-pyrrolo[2,3-d]pyrimidin-4-one] | 570 nM |
| O=C(C1CCCC(O)C1c1ccccc1)N1CCC(O)(Cn2cnc3c(ccn3-c3ccccc3)c2=O)CC1 (single isomer, unassigned) [Example 55, (1S,2S,3R or 1R,2R,3S)-3-[[4-hydroxy-1-[3-hydroxy-2-phenyl-cyclohexanecarbonyl]-4-piperidyl]methyl]-7-phenyl-pyrrolo[2,3-d]pyrimidin-4-one] | 113 nM |
